This is an account of results in US7253187B2, “Heterocyclic inhibitors of ERK2 and uses thereof” (Vertex Pharmaceuticals Incorporated, priority 2001, dated 2007).

For orientation: IC50 means the concentration that inhibits the measured activity by half. High values mean lower potency, low ones higher potency. In general, Ki refers to a dissociation constant, usually derived from enzyme kinetics or from competition with a known ligand.

The test system of assay [1] is Colon cancer cells (HT-29 cell line). As to the kind of experiment: ERK2 inhibition: cell proliferation assay (3H-thymidine uptake). The class given is cell-based. Particulars: Homo sapiens, 3 days. How it is done:
Compounds may be assayed for the inhibition of ERK2 by a cell proliferation assay. […] Colon cancer cells (HT-29 cell line) are added to each of 84-wells of a 96 well plate at a seeding density of 10,000 cells/well/150 μL. The cells are allowed to attach to the plate by incubating at 37° C. for 2 hours. […] The test compound solution (50 μL) is added to each of 72 cell-containing wells. To the 12 remaining cell-containing wells, only complete media (200 μL) is added to form a control group in order to measure maximal proliferation. To the remaining 12 empty wells, complete media is added to form a vehicle control group in order to measure background. The plates are incubated at 37° C. for 3 days. A stock solution of ^3H-thymidine (1 mCi/mL, New England Nuclear, Boston, Mass.) is diluted to 20 μCi/mL in RPMI medium then 20 μL of this solution is added to each well. The plates are further incubated at 37° C. for 8 hours then harvested and analyzed for ^3H-thymidine uptake using a liquid scintillation counter.

Another assay deals with T1, GSK-3β (AA 1–420) (Homo sapiens, UniProt P49841).
T1 construct: GSK-3β (AA 1–420)
T1 sequence (P49841 whole entry, species assumed, the tested form may be a part): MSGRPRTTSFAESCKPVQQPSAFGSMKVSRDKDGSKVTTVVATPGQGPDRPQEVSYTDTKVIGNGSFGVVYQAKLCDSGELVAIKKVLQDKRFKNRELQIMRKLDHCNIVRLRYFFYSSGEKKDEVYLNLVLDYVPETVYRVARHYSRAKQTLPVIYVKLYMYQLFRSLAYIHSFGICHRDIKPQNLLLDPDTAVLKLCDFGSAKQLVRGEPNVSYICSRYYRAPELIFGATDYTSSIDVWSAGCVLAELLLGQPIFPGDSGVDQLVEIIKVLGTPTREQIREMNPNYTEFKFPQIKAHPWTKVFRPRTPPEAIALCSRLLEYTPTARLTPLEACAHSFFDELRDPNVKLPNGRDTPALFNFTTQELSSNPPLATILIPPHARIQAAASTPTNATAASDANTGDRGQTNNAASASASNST
The assay can be described thus: GSK-3 inhibition assay (coupled enzyme system). In kind it is biochemical. Particulars: read-out: GSK3 Inhibitory Activity (Ki class). A digest of the protocol: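 ADP production read via pyruvate kinase/lactate dehydrogenase–coupled NADH consumption over 10 min at 30 °C. Ki derived from rates versus inhibitor concentration.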

The target of a further assay is T2, Aurora-2 (Homo sapiens, UniProt O14965).
T2 sequence (O14965 1-403): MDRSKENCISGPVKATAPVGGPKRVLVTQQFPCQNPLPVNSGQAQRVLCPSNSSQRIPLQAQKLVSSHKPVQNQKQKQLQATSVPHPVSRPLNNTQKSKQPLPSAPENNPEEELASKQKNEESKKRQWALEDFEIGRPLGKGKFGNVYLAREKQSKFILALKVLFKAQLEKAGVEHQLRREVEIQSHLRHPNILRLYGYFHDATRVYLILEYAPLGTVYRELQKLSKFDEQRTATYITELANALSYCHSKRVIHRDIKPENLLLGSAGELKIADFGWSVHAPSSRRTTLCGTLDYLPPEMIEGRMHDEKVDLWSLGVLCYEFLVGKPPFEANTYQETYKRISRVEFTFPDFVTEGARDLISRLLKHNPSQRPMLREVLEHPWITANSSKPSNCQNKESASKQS
The assay can be described thus: Aurora-2 inhibition assay (coupled enzyme assay). In kind it is biochemical. As for the experimental part: Compounds were screened in the following manner for their ability to inhibit Aurora-2 using a standard coupled enzyme assay (Fox et al (1998) Protein Sci 7, 2249).
To an assay stock buffer solution containing 0.1M HEPES 7.5, 10 mM MgCl2, 1 mM DTT, 25 mM NaCl, 2.5 mM phosphoenolpyruvate, […], 30 mg/ml pyruvate kinase, 10 mg/ml lactate dehydrogenase, […], and 800 μM peptide (LRRASLG, American Peptide, Sunnyvale, Calif.) was added a DMSO solution of a compound of the present invention to a final concentration of 30 μM. The resulting mixture was incubated at 30° C. for 10 min. The reaction was initiated by the addition of 10 μL of Aurora-2 stock solution to give a final concentration of 70 nM in the assay. The rates of reaction were obtained by monitoring absorbance at 340 nm over a 5 minute read time at 30° C. using a BioRad Ultramark plate reader (Hercules, Calif.). The Ki values were determined from the rate data as a function of inhibitor concentration.

The next assay deals with ERK2 (Homo sapiens, UniProt P28482). As to the kind of experiment: ERK2 inhibition assay (spectrophotometric coupled-enzyme assay). The settings on record: read-out: ERK2 Inhibitory Activity (Ki class D-F). The class given is biochemical. As for the experimental part: The IC50 was evaluated from the rate data as a function of inhibitor concentration. […] The compound numbers correspond to the compound numbers in Table 1.
Chain of ERK2 (P28482 whole entry): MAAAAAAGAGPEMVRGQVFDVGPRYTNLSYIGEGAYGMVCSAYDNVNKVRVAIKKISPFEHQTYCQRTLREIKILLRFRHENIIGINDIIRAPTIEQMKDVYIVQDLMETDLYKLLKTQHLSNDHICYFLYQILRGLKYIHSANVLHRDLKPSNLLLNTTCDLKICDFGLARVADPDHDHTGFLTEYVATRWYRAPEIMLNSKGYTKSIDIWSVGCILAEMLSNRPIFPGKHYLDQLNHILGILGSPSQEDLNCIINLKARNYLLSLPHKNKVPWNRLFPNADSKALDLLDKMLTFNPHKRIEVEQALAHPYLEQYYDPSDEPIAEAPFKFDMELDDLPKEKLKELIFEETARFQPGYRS

A further assay deals with ERK1 (Homo sapiens, UniProt P27361). The assay can be described thus: ERK1 inhibition assay (spectrophotometric coupled-enzyme assay). The class given is biochemical. Particulars: read-out: inhibit ERK1 with an activity (Ki). How it is done:
Compounds were assayed for the inhibition of ERK1 by a spectrophotometric coupled-enzyme assay (Fox et al (1998) Protein Sci 7, 2249). In this assay, a fixed concentration of activated ERK1 (20 nM) was incubated with various concentrations of the compound in DMSO (2.0%) for 10 min. at 30° C. in 0.1 M HEPES buffer, pH 7.6, containing 10 mM MgCl2, 2.5 mM-phosphoenolpyruvate, 200 μM NADH, 30 μg/mL pyruvate kinase, 10 μg/mL lactate dehydrogenase, and 150 μM erktide peptide. The reaction was initiated by the addition of 140 μM ATP (20 μL). The rate of decrease of absorbance at 340 nm was monitored. The Ki was evaluated from the rate data as a function of inhibitor concentration.

For the next assay, the target named is AKT3 (Homo sapiens, UniProt Q9Y243). The assay can be described thus: AKT3 inhibition assay (coupled enzyme assay). In kind it is biochemical. As for the experimental part:
Compounds were screened for their ability to inhibit AKT3 using a standard coupled enzyme assay (Fox et al., Protein Sci., (1998) 7, 2249). Assays were carried out in a mixture of 100 mM HEPES 7.5, 10 mM MgCl2, 25 mM NaCl , 1 mM DTT and 1.5% DMSO. Final substrate concentrations in the assay were 170 μM ATP (Sigma Chemicals) and 200 μM peptide (RPRAATF, American Peptide, Sunnyvale, Calif.). Assays were carried out at 30° C. and 45 nM AKT3. Final concentrations of the components of the coupled enzyme system were 2.5 mM phosphoenolpyruvate, 300 μM NADH, 30 μg/ML pyruvate kinase and 10 μg/ml lactate dehydrogenase.
An assay stock buffer solution was prepared containing all of the reagents listed above, with the exception of AKT3, DTT, and the test compound of interest. 56 μl of the stock solution was placed in a 384 well plate followed by addition of 1 μl of 2 mM DMSO stock containing the test compound (final compound concentration 30 μM). The plate was preincubated for about 10 minutes at 30° C. and the reaction initiated by addition of 10 μl of enzyme (final concentration 45 nM) and 1 mM DTT. Rates of reaction were obtained using a BioRad Ultramark plate reader (Hercules, Calif.) over a 5 minute read time at 30° C.

Chain of ERK1 (P27361 whole entry, species assumed): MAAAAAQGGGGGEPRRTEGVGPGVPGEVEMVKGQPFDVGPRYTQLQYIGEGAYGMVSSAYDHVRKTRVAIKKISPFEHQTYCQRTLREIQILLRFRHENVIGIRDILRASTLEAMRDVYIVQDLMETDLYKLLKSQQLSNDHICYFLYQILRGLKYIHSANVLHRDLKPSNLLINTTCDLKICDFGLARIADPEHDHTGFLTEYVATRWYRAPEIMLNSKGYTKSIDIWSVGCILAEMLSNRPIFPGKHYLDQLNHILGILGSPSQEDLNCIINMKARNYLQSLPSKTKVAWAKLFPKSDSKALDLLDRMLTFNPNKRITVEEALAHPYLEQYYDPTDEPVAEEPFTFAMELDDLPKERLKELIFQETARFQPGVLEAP
Chain of AKT3 (Q9Y243 whole entry, species assumed): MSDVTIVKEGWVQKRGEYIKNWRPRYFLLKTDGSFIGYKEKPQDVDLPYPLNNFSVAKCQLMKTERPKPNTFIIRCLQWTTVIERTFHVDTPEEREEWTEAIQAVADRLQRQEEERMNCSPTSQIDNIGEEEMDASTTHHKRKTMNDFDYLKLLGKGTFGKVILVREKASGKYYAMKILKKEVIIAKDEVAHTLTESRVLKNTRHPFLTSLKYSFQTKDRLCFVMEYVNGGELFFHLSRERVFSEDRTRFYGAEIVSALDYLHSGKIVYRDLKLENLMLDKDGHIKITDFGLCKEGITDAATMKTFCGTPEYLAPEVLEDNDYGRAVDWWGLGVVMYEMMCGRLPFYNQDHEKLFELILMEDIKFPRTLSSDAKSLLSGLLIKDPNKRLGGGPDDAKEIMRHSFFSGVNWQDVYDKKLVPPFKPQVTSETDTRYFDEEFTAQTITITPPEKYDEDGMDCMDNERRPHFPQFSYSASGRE

`Cc1cnc(Nc2ccc3c(c2)OCO3)nc1-c1c[nH]c(C(=O)NC(CO)c2ccccc2)c1` (stereo not drawn) [III-a-139, 4-[2-(Benzo[1,3]dioxol-5-ylamino)-5-methyl-pyrimidin-4-yl]-1H-pyrrole-2-carboxylic acid (2-hydroxy-1-phenyl-ethyl)-amide] displayed an IC50 in assay [1] of less than 100 nM. Besides, the Ki at GSK-3β (AA 1–420) and on ERK2 was less than 100 nM in each case. Moreover, at Aurora-2, the “found to inhibit Aurora-2” value was “found to inhibit Aurora-2”.
For `Cc1cnc(NC2CC2)nc1-c1c[nH]c(C(=O)NC(CO)c2cccc(C(F)(F)F)c2)c1` (stereo not drawn) [III-a-202, 4-(2-Cyclopropylamino-5-methyl-pyrimidin-4-yl)-1H-pyrrole-2-carboxylic acid [2-hydroxy-1-(3-trifluoromethyl-phenyl)-ethyl]-amide], the values for the Ki at GSK-3β (AA 1–420), on ERK1 and at ERK2 were greater than 1000 nM, less than 100 nM and less than 100 nM, respectively.
`Cc1cccc(C(CO)NC(=O)c2cc(-c3nc(NC4CC4)ncc3C)c[nH]2)c1` (stereo not drawn) [III-a-205, 4–1(2-Cyclopropylamino-5-methyl-pyrimidin-4-yl)-1H-pyrrole-2-carboxylic acid (2-hydroxy-1-m-tolyl-ethyl)-amide]: the Ki on GSK-3β (AA 1–420) is 100 to 1000 nM; on ERK1 it was less than 100 nM; on ERK2, less than 100 nM.
Turning to `Cc1cnc(Nc2cccc(F)c2)nc1-c1c[nH]c(C(=O)NC(CO)c2ccccc2)c1` (stereo not drawn) [III-a-136, 4-[2-(3-Fluoro-phenylamino)-5-methyl-pyrimidin-4-yl]-1H-pyrrole-2-carboxylic acid (2-hydroxy-1-phenyl-ethyl)-amide], in assay [1], the IC50 was less than 100 nM. For the same molecule, the Ki at GSK-3β (AA 1–420) is less than 100 nM. Further, the “found to inhibit Aurora-2” value on Aurora-2 is on record as “found to inhibit Aurora-2”.
In the case of `Cc1cnc(NC#N)nc1-c1c[nH]c(C(=O)NC(CO)c2ccccc2)c1` (stereo not drawn) [III-a-238, 4-(2-Cyanoamino-5-methyl-pyrimidin-4-yl)-1H-pyrrole-2-carboxylic acid (2-hydroxy-1-phenyl-ethyl)-amide], on AKT3, the “inhibit AKT3” value was “inhibit AKT3”. Besides, on ERK2, the Ki is less than 100 nM.
